Values quoted from earlier work as cited in US5648349A, “PLA2 inhibitors” (Monsanto Company, priority 1995, dated 1997).

System: rat neonatal myocytes
Details: rat neonatal myocytes; Chien et al 1985 (cited); cited from earlier work

## O=C(O)CI [iodoacetate]
  levels of ATP, release of arachidonic acid and morphological alterations of the myocytes: lowers the levels of ATP which results in the release of arachidonic acid and morphological alterations of the myocytes
